Where two headings read alike, the source gives them in different places.
Experiments:
[1] = system: T1, SEN3897; settings: read-out: L → D / Km; L to D direction; 10 μM PLP, Tris-HCl pH 8.0, 37 °C
T1 construct: gene alr

[2] = system: T2, DadX; assay: coupled spectrophotometric assay, NADH at […] nm (D-amino acid aminotransferase / L-lactate dehydrogenase); format: biochemical, Salmonella enterica subsp. enterica serovar Enteritidis; settings: L to D direction; 10 μM PLP, Tris-HCl pH 8.0, 37 °C
T2 construct: pET28a-dadX (NheI/XhoI), N-terminal 6xHis tag, E. coli BL21(DE3) Codon Plus, Ni-NTA purified

[3] = system: T1, SEN3897; settings: read-out: D → L / Km; D to L direction; 10 μM PLP, 2.5 mM NAD+, Tris-HCl pH 8.0, 37 °C
[4] = system: T2, DadX; assay: coupled spectrophotometric assay, NADH at […] nm (L-alanine dehydrogenase); format: biochemical, Salmonella enterica subsp. enterica serovar Enteritidis; settings: D to L direction; 10 μM PLP, 2.5 mM NAD+, Tris-HCl pH 8.0, 37 °C

Structure (SMILES)	Km [1] [mM]	Km [2] [mM]	Km [3] [mM]	Km [4] [mM]
C[C@H](N)C(=O)O [L-alanine]	89.1 ± 10.2	58.9 ± 2.7	–	–
C[C@@H](N)C(=O)O [D-alanine]	–	–	35 ± 6	52.8 ± 3
